Measurements published in patent US20230293509A1, “METHOD AND COMPOUND FOR USE, IN TREATING AND/OR PREVENTING NETOSIS” (JUBILANT EPIPAD LLC, priority 2020, published 2023).

Tests used:
4T1 cells = assay: Murine breast cancer efficacy model, 4T1 allograft; assay type: in vivo, Balb/C female mice; conditions: 4T1 bearing mice, oral gavage twice daily for 14 days
Description: (§1) PAD4 is highly expressed in malignant tumours of various cell types, Here, the mouse mammary carcinoma of 4T1 and EMT6 cells were used as an experimental model. Mouse 4T1, and EMT-6, a breast cancer cell line was sourced from American Type Culture Collection (ATCC), USA. Cells were grown according to the product information. To establish allografts, the cells were harvested by trypsinization when they reached around 70 to 80% confluence. After harvesting, Balb/C female mice (7-8 weeks) were implanted with 4T1 (1 million cells/site) and EMT-6 (0.5 million cells/site) subcutaneously in the dorsal right flank of mice using a 1 mL BD syringe attached to a 24-gauge needle. When the tumors became palpable tumor measurement was initiated and at an approximate tumor volume of ˜110 and 93 mm3, respectively. Animals were randomized into different treatment groups keeping tumor volume and the number of animals/group similar across the groups and compound 143 treatment was initiated. […]
(§2) Tumor dimensions (length and breadth) were measured on days 1 (animal randomization based on tumor volume) and thrice weekly thereafter until study termination.
(§3) Tumor volumes were calculated using the formula (b2*1)*0.52 where 1=length, b=breadth (Dusan Djokovic et al., BMC Cancer, 2010, 10:641). […]

EMT-6 cells = assay: Murine breast cancer efficacy model, EMT-6 allograft; assay type: in vivo, Balb/C female mice; conditions: EMT-6 bearing mice, oral gavage twice daily for 13 days
Description: as §1, §2, §3

[1] = test system: Bleomycin (BLM)-induced mice fibrosis; assay: Bleomycin induced lung fibrosis model; assay type: in vivo, C57BL/6 male mice; conditions: 50 mg/kg, PO, BID
Text: Bleomycin (BLM)-induced mice fibrosis is a well-established animal model used to study pathogenesis of lung fibrosis and to estimate the potential anti-fibrotic agents. C57BL/6 male mice at 6-8 weeks of age were purchased from vivo biotech India (under the license from Taconic). The procedures involving the care and use of animals in the study was reviewed and approved by the Institutional Animal Care and Use Committee (IAEC/JDC/2018-161R) prior to conduct. During the study, the care and use of animals was in accordance with the principles outlined in the Guide for the Care and Use of Laboratory Animals, 8th Edition, 2010 (National Research Council) and every effort was made to minimize suffering. The animals were acclimatized for 7 days prior to experimental use. Mice were caged with free access to food and fresh water in a temperature-controlled room (22° C.-24° C.) on a 12 h light/dark cycle. Pulmonary fibrosis was induced by invasive method in animals using single intra-tracheal administration of 50 μg bleomycin prepared in 50 μL of saline under isoflurane anaesthesia. […] Animals were monitored and evaluated for their body weight loss. […] Fibronectin was measured as a PD biomarker by RT-qPCR and fold change in mRNA level was calculated after normalizing to GAPDH. […] The Modified Ashcroft Index score was determined for the vehicle-treated control mice and the test compound treated mice.

[2] = test system: silica induced lung fibrosis; assay: Silica induced pro-fibrotic lung model; assay type: in vivo, C57BL/6 female mice; conditions: 50 mg/kg PO, BID, day 7 to 11, comparable to Nintedanib 100 mg/kg, QD
Description: The instillation of silica into the murine lung results in the development of fibrotic nodules that resemble simple silicotic nodular fibrosis, which develop in humans following some occupational exposures to dust and particulate aerosols. Silica can be delivered to rodents via aerosolization, intratracheal administration or oropharyngeal aspiration. C57BL/6 female mice at an age of 6-8 weeks were instilled with silica particles (2.5 mg/mouse) by non-surgical intratracheal (IT) method. The day of silica instillation was defined as day 0. Test compound was administered twice daily and standard of care was dosed once daily from day 7 to 11 for therapeutic intervention. Animals were monitored and evaluated for their clinical signs and body weight loss. Animals were euthanized on day 11 and the lungs were weighed and biomarkers were analyzed in lung.

DSS-induced colitis = assay: Dextran sulfate sodium (DSS) induced colitis model; assay type: in vivo, C57BL/6 male mice; conditions: 1 mg/kg, QD, oral; day 10
Text: Ulcerative colitis (UC) is an intermittent inflammatory bowel disease of the colonic mucosa, with periods of exacerbated symptoms (the active phase of the disease), and periods that are relatively symptom-free (remission phase of disease). Among various chemical induced colitis models, DSS-induced colitis model is widely used because of its simplicity and many similarities with human ulcerative colitis. C57BL/6 male mice at 6-8 weeks of age were purchased from vivo biotech India (under the license from Taconic). The procedures involving the care and use of animals in the study was reviewed and approved by the Institutional Animal Care and Use Committee (IAEC/JDC/2018-161R) prior to conduct. During the study, the care and use of animals was in accordance with the principles outlined in the Guide for the Care and Use of Laboratory Animals, 8th Edition, 2010 (National Research Council) and every effort was made to minimize suffering. The animals were acclimatized for ˜10 days prior to experimental use. Mice were caged with free access to food and fresh water in a temperature-controlled room (22° C.-24° C.) on a 12 h light/dark cycle. […]

Compound | Body weight changes (4T1 cells) | Body weight changes (EMT-6 cells) | Lung weight ([1]; day 0 to 14, compared with Nintedanib 100 mg/kg, QD) | Fibronectin mRNA in lung (RT-qPCR) ([1]; day 0 to 14, compared with Nintedanib) | Fibronectin level in lung [2] | Lung weight [2] | Disease reversal (DAI) compared to disease control (DSS-induced colitis) [%]
N[C@@H]1CCCN(C(=O)c2cc3c4c(c2)nc(-c2cc5cccc(Cl)c5n2CC2CC2)n4CCO3)C1 [Compound 143, (R)-(3-aminopiperidin-1-yl)(2-(7-chloro-1-(cyclopropylmethyl)-1H-indol-2-yl)-3,4-dihydro-5-oxa-1,2a-diazaacenaphthylen-7-yl)methanone] | no significant body weight changes | no significant body weight changes | reduction in lung weight comparable to standard of care Nintedanib | stronger reduction of fibronectin mRNA as compared to Nintedanib | significant decrease | significant decrease | 
CCCCCCCCc1ccc(CCC(N)(CO)CO)cc1 [Fingolimod] |  |  |  |  |  |  | ~58.9
